# Measured values reported in patent publication US20080175837A1, “DPP4 INHIBITOR AND PHARMACEUTICAL USE THEREOF” (AJINOMOTO CO., INC, priority 2005, published 2008).
# Residues, ends and D or L forms follow the SMILES beside them.
# Experiments:
# [1] = molecular target: T1, p103 (rat dipeptidyl peptidase IV, DPP4) (Rattus norvegicus, UniProt P14740); test: Bond of Leu8-MAP to leucine binding protein p103 on the hepatocyte membrane, competition by free amino acids; settings: excess free amino acid
# T1 construct: from tissue; host or cells: rat hepatocyte membrane
# T1 sequence (P14740 whole entry): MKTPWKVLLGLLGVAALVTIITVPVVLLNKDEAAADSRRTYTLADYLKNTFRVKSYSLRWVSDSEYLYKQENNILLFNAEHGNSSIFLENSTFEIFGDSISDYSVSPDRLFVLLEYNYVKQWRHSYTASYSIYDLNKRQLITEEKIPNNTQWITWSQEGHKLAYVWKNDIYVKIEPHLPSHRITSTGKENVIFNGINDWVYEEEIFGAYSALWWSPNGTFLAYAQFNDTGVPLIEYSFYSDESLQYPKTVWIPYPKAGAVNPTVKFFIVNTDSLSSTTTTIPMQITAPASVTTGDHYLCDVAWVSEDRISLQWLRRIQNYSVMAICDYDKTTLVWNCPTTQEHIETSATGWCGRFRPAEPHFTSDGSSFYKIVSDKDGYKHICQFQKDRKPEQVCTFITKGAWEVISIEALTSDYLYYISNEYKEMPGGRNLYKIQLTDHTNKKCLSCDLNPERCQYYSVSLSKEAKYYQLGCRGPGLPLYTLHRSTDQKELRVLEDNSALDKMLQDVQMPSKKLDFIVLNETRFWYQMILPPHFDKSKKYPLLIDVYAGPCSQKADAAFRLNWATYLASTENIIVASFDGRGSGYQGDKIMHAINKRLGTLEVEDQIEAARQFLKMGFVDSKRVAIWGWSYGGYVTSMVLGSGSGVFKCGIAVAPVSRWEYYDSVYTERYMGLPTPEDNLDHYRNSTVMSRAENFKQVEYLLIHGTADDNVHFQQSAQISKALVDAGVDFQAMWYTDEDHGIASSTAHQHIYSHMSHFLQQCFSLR
# Excerpt: In order to solve the above problems, the inventors attempted to identify leucine binding protein that exists on the membrane of rat hepatic cells by using a membrane-impermeable leucine derivative (Leu8-MAP). As a result of the thorough search, they found a molecular weight of 103-kilodalton leucine-specific binding protein (p103) on the hepatocyte membrane. Though the bond of Leu8-MAP to p103 was inhibited by excess free leucine, it was not inhibited by isoleucine or valine. Therefore, p103 was protein that selectively bonds to leucine. Further, as a result of various examinations on the condition for purifying p103 from the hepatocyte membrane, they succeeded in isolating the above protein by purification and detected it as a single band protein by SDS-PAGE electrophoresis. This band was cleaved from the gel, and peptide fragmentation was conducted thereto by the in-gel reduction/alkylation and the enzyme digestion. Then, the mass spectrometry was conducted by providing the fragment with the equipment wherein a nanoHPLC system (Ultimate: Nippon Dionex K.K.) was connected to an ion trap mass spectrometer (LCQ: Thermo Electron Co., Ltd.). The obtained data was identified with a database search system (Mascot: Matrix Science, Ltd.). MSDB (Jan. 6, 2004 ver. by Matrix Science, Ltd.) was used as the sequence database for search. As a result, rat dipeptidyl peptidase IV (DPP4: EC 3.4.14.5) could be identified at a high score.
# [2] = molecular target: T2, recombinant human dipeptidyl peptidase IV (rhDpp4) (Homo sapiens, UniProt P27487); test: Inhibiting activity against rhDpp4 (G-P-pNA cleavage, absorbance at 405 nm); format: biochemical
# T2 construct: purchased R&D Systems 1180-SE
# T2 sequence (P27487 whole entry): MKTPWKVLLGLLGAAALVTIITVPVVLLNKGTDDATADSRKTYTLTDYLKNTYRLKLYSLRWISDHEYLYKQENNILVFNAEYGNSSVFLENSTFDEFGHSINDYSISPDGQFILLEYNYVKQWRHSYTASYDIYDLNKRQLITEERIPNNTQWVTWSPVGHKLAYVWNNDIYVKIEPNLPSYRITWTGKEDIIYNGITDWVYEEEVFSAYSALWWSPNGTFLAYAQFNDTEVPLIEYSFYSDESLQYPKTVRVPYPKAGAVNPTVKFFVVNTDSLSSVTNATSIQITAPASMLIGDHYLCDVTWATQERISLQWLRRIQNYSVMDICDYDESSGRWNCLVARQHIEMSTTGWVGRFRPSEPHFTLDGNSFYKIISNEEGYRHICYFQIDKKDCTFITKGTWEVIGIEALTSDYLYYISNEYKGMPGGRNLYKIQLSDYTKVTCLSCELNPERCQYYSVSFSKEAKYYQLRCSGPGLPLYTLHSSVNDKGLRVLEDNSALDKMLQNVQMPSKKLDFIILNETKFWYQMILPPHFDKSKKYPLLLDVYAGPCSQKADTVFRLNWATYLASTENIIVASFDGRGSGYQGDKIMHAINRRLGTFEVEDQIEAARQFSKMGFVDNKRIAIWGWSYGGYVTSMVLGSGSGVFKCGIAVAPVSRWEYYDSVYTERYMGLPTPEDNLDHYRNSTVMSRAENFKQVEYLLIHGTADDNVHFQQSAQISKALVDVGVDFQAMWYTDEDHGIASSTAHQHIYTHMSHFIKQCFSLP
# Procedure: The inhibiting activity of each test compound was determined against the cleaving activity of GLY-PRO-p-nitroanihde (G-P-pNA, by Sigma, #G-0513), which is a synthetic substrate of recombinant human dipeptidyl peptidase IV (rhDpp4, by R&D Systems, #1180-SE). G-P-pNA was cleaved between PRO and pNA by rhDpp4. Since pNA is absorbed at 405 nm, the value thereof was measured to determine the cleavage amount.
# The reaction solution (25 mM Tris (pH8.0), 100 uM G-P-pNA, 0.25 ng/ul rhDPP4) was prepared and added to the test compound so that the final concentration of the test compound became 2 mM (1% DMSO concentration). The reaction solution was kept in 37° C. for 30 minutes. After that, the absorbance at 405 nm was measured at once by a spectrophotometer. The reaction was conducted in 200 ul scale with a 96-well microplate.
# At the same time, the absorbance at 405 nm of each 100, 33, 11, 3.7, 1.2, 0.41, and 0.14 uM pNA solution was measured to obtain the relational formula of pNA concentration and absorbance, and the pNA amount (the substrate cleavage amount) in each reaction solution was calculated.
# As for the inhibition rate, 3 to 4 wells without the test compound were prepared in the same plate. Then, the inhibition rate was calculated and shown in percentage by using the following formula from the proportion of the substrate cleavage amount (B) of the well to which each test compound was added to the average amount (A) of the substrate cleavage amount of the well without the test compound.
# Inhibition rate (%)=100×(1−(B)/(A))
# rat hepatic cells = test: Measurement of autophagy (proteolysis, valine release) by using rat hepatic cells; format: cell-based
# Procedure: Male Wistar rats of 140 to 180 g which were freely fed were used to prepare rat hepatic cells by the collagenase perfusion method (Seglen, P.O. Preparation of isolated liver cells. (1976) In Methods in Cell Biology eds. D. M. Prescott, 13, 29-83. Academic: New York/London). By this method, 2 to 2.5×10^8 cells of the hepatic cells per one individual's […] could be prepared.
# The protein decomposition (autophagy) of the prepared hepatic cells was determined by the method of Venerando, et al. Namely, the hepatic cells were put in a 10 mL flask with 3.5 mL of KRB buffer (24 mM bicarbonate, 6 mM glucose) to prepare a cell suspension (1 to 1.2×10^6 cells/mL). The solution was kept and left in 37° C. for 45 minutes in a carbon dioxide incubator. Then, various chemical treatments were conducted under the existence of 20 uM cycloheximide in order to stop the protein synthesis, and the solution was kept at 37° C. for […]. At each 31 minutes and 42 minutes, 0.35 mL of the hepatic cell suspension was taken out, and a perchloric acid cooled with ice (final concentration 6%) was added to the latter and preserved at −20° C. Valine in the supernatant of the acid-soluble fraction was measured, and valine release for 11 minutes was determined. […]
"inhibition of the bond of Leu8-MAP to p103, in words [1]","Dpp4 inhibiting activity among 20 kinds of amino acids (FIG. 2, substrate cleavage rate), in words [2]",SMILES,further results
inhibited,has the Dpp4 inhibiting activity,"CC(C)C[C@H](N)C(=O)O [Leucine, L-leucine]","concentration-dependent Dpp4 inhibiting activity (FIG. 1), in words ([2]; FIG. 1): inhibits Dpp4; effect on autophagy induced by amino acid starvation, in words (rat hepatic cells): strongly inhibits autophagy; Inhibition of proteolysis (%) (rat hepatic cells; starvation induced proteolysis, 20 uM cycloheximide, valine release for 11 minutes): 27.9%"
,has the Dpp4 inhibiting activity,"CSCC[C@H](N)C(=O)O [Met, L-methionine]",
,,"CC(C)C[C@H](NC(=O)[C@@H](N)CCCCN)C(=O)O [R1=L-Lys, R2=OH, Lys-Leu] (H-Lys-Leu-OH)","Inhibition rate (%) ([2]; test compound 2 mM, 100 uM G-P-pNA, 0.25 ng/ul rhDPP4, 37° C. for 30 minutes): 38.4%"
not inhibited,,CC[C@H](C)[C@H](N)C(=O)O [isoleucine],
not inhibited,,CC(C)[C@H](N)C(=O)O [valine],
